Laboratory results from patent publication US20110009433A1, “BICYCLIC PYRROLE COMPOUND” (DAINIPPON SUMITOMO PHARMA CO., LTD., priority 2008, published 2011).
Where a name gives a salt, the structure may show the parent alone.

Tests used:
[1] = Hygroscopicity measured at room temperature (weight change under moisture adsorption/desorption); assay type: physicochemical; details: humidity of 0 to 90%
Protocol: The hygroscopicity was measured at room temperature for each of the crystalline monohydrochloride 0.5 hydrate of Example 1 (compound A) produced by the method of the present invention and the amorphous powders of the compound of Example 6 of International Publication No. 2006/068163 (compound B) produced by a conventional technique.

human recombinant DPP IV = biological target: T1, human recombinant DPP IV (Homo sapiens, UniProt P27487); experiment: In vitro DPP-IV inhibitory action measurement test; assay type: biochemical; details: preincubated 100 to 110 minutes, substrate Gly-Pro-MCA 40 μmol/L
T1 construct: purchased R&D system
Protocol: Solutions containing test compounds were prepared at various concentrations and added to microassay plates. Further, human recombinant DPP IV (R&D system) was added and preincubated at room temperature for 100 to 110 minutes, followed by adding a substrate (Glycyl-L-proline 4-methylcoumaryl-7-amide, Peptide Institute, Inc.; final concentration: 40 μmol/L) to start the enzymatic reaction. The enzymatic reaction rate was determined by measuring the fluorescence change with time for 10 minutes after 10 minutes elapsed from the start of addition of the substrate using a fluorescence plate reader (excitation wavelength: 380 nm, measurement wavelength: 460 nm). From the results obtained, the compound concentration showing 50% inhibition was calculated as an IC50 value.

[2] = Storage stability under a light source: residual rate by HPLC and appearance after two week storage; assay type: physicochemical; details: for residual rate: HPLC area percentage; for change in color after the stability test (in words) / stability under a light source (in words): both 1000 lux and 4000 lux
Protocol: The residual rates after two week storage under a light source of 1000 lux and 4000 lux were measured for each of the crystalline monohydrochloride 0.5 hydrate of Example 1 (compound A) produced by the method of the present invention and the amorphous powders of the compound of Example 6 of International Publication No. 2006/068163 (compound B) produced by a conventional technique.
The residual rate (%) of a compound was determined by the area percentage of the residual rate of the compound measured using high performance liquid chromatography (HPLC). The HPLC measurement conditions were as follows:
Column: CAPCELL PAK C18 UG120 (4.6 mm I.D.×250 mm)
Mobile phase (A/B): 10 mM sodium phosphate buffer (pH=6.9)/CH3CN
Mobile phase (ratio of B): 30% (0 min) →90% (45 min)
Column temperature: 40° C.

[3] = two week storage, 1000 Lux, 11% RH
[4] = two week storage, 4000 Lux, 10% RH

T1 sequence (P27487 whole entry): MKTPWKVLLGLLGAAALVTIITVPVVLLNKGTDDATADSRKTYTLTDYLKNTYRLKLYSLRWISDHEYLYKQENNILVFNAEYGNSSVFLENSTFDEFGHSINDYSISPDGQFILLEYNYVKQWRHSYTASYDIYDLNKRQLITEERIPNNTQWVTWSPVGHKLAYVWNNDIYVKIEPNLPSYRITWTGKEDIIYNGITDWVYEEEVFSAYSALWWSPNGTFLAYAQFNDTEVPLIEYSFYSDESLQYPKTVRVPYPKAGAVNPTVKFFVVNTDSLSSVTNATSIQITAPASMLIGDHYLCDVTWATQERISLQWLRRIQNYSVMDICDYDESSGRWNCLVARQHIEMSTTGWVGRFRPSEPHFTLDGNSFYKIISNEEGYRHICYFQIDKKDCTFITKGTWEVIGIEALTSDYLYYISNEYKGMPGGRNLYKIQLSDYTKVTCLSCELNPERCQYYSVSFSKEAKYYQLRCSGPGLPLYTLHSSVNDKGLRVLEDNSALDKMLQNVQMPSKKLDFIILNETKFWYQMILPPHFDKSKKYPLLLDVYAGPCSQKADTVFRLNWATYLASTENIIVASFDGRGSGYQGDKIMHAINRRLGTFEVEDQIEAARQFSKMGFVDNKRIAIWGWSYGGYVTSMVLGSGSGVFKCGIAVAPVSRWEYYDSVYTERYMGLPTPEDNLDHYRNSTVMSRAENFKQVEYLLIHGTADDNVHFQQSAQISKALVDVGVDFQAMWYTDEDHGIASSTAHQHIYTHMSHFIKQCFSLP

Row | Structure (SMILES) | change in the weight (hygroscopicity) [1] | IC50 (human recombinant DPP IV) [nM] | appearance (color) ([2]; Initial) | residual rate ([2]; Initial) [%] | change in color after the stability test (in words) ([2]; two week storage) | stability under a light source (in words) ([2]; two week storage) | appearance (color) [2, 3] | residual rate [2, 3] [%] | appearance (color) [2, 4] | residual rate [2, 4] [%] | melting point [°C]
1 | Cn1c(=O)c2c(cc(N3CCC[C@@H](N)C3)n2Cc2cc(F)ccc2Cl)n(C)c1=O [Compound A, 6-[(3R)-3-aminopiperidin-1-yl]-5-(2-chloro-5-fluorobenzyl)-1,3-dimethyl-1H-pyrrolo[3,2-d]pyrimidine-2,4(3H,5H)-dione monohydrochloride hemihydrate] | no change in the weight | 0.71 | Pale yellow | 100.0 | no change in color | extremely high stability | Pale yellow | 100.0 | Pale yellow | 99.9 | 
2 | Cn1c(=O)c2c(cc(N3CCC[C@@H](N)C3)n2Cc2cc(F)ccc2Cl)n(C)c1=O (as salt: hydrochloride) (hydrate or solvate) [Compound A, 6-[(3R)-3-aminopiperidin-1-yl]-5-(2-chloro-5-fluorobenzyl)-1,3-dimethyl-1H-pyrrolo[3,2-d]pyrimidine-2,4(3H,5H)-dione monohydrochloride hemihydrate] |  |  |  |  |  |  |  |  |  |  | 205 to 208
3 | Cl.Cn1c(=O)c2c(cc(N3CCC[C@@H](N)C3)n2Cc2cc(F)ccc2Cl)n(C)c1=O [Compound B, reference compound] | −5.0 to 9.0% |  | Pale yellow | 100.0 | apparently changed in color to yellow | low stability | Yellow | 99.2 | Yellow | 97.4 | 
